Reference: paper PMC5095920 (Biochemical Journal, 2016)

Biological target: T1, HemQ (Staphylococcus aureus, UniProt Q2YS77)
T1 sequence (Q2YS77 1-250): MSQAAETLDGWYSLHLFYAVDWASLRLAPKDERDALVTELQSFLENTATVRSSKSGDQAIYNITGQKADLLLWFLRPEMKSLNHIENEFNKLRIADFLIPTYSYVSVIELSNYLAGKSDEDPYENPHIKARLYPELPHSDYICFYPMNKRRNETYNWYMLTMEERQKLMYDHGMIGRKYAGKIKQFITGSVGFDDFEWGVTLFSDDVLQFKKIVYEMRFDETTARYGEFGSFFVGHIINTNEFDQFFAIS
Test: co-purification on affinity column, absorption spectroscopy
Assay type: binding
Settings: porphyrin added before affinity chromatography, pH 8.0

CC1=C(CCC(=O)O)c2cc3nc(cc4[nH]c(cc5[nH]c(cc1n2)c(C)c5CCC(=O)O)c(CCC(=O)O)c4C)C(CCC(=O)O)=C3C [coproporphyrin III]
co-purification on affinity column, absorption spectroscopy: HemQ that was loaded with bound haem, protoporphyrin IX, and coproporphyrin III

C=CC1=C(C)c2cc3[nH]c(cc4nc(cc5[nH]c(cc1n2)c(C)c5CCC(=O)O)C(CCC(=O)O)=C4C)c(C)c3C=C [protoporphyrin IX]
co-purification on affinity column, absorption spectroscopy: HemQ that was loaded with bound haem, protoporphyrin IX, and coproporphyrin III
